Patent US8741886B2, “Baclofen and acamprosate based therapy of neurological disorders” (Pharnext, priority 2011, dated 2014)

Assays:
neuronal cortical cells = assay: Glutamate toxicity assay on primary cortical neurons (neurite network, neurofilament immunostaining); format: cell-based, rat; details: Baclofen 400 nM, Acamprosate 1.6 nM; glutamate 40 μM, 20 min
Method: The efficacy of drug combinations of the invention is assessed on primary cortical neuron cells. The protocol which is used in these assays is the same as described in section A.I.2 above.
After 12 days of neuron culture, drugs of the candidate combinations are solved in culture medium (+0.1% DMSO). Candidate combinations are then pre-incubated with neurons for 1 hour before the Glutamate injury. One hour after incubation with, Glutamate is added for 20 min, to a final concentration of 40 μM, in presence of candidate combinations, in order to avoid further drug dilutions. At the end of the incubation, medium is changed with medium with candidate combination but without glutamate. The culture is fixed 24 hours after glutamate injury. MK801 (Dizocilpinehydrogen maleate, 77086-22-7-20 μM) is used as a positive control.
After permeabilization with saponin (Sigma), cells are blocked for 2 h with PBS containing 10% goat serum, then the cells are incubated with mouse monoclonal primary antibody against Neurofilament antibody (NF, Sigma).
Nuclei of cells are labeled by a fluorescent marker (Hoechst solution, SIGMA), and neurite network quantified. Six wells per condition are used to assess neuronal survival in 3 different cultures.

rat cortical neurons = assay: Toxicity of Aβ1-42 in neurite growth model: total length of neurite network; format: cell-based; details: Aβ1-42 2.5 μM; single drugs at the concentrations used in the combination
Method: Rat cortical neurons were cultured as described by Singer et al. (35). Briefly pregnant female rats of 15 days gestation were killed by cervical dislocation (Rats Wistar) and the foetuses were removed from the uterus. The cortex was removed and placed in ice-cold medium of Leibovitz (L15) containing 2% of Penicillin 10.000 U/ml and Streptomycin 10 mg/ml and 1% of bovine serum albumin (BSA). Cortices were dissociated by trypsin for 20 min at 37° C. (0.05%). The reaction was stopped by the addition of Dulbecco's modified Eagle's medium (DMEM) containing DNasel grade II and 10% of foetal calf serum (FCS). Cells were then mechanically dissociated by 3 serial passages through a 10 ml pipette and centrifuged at 515×g for 10 min at +4° C. […] Viable cells were counted in a Neubauer cytometer using the trypan blue exclusion test. […]
After 24 hours of intoxication, the supernatant is taken off and the cortical neurons are fixed by a cold solution of ethanol (95%) and acetic acid (5%) for 5 min. […] Then, cells are incubated with monoclonal antibody anti microtubule-associated-protein 2 (MAP-2; Sigma) or with anti synaptophysin (SYN, S5798, Sigma) together with anti PSD95 (P246, Sigma) antibodies in order to quantify synapses. […]

[1] = test system: mice injected i.c.v. with Aβ25-35 peptide; assay: Passive avoidance test after i.c.v. Aβ25-35; format: in vivo; details: Acamprosate 0.2 mg/kg; Baclofen 3 mg/kg
Method: Male Swiss mice are used throughout the study. Animals are housed in plastic cages, with free access to laboratory chow and water, except during behavioural experiments, and kept in a regulated environment, under a 12 h light/dark cycle (light on at 8:00 a.m.). Experiments are carried out in a soundproof and air-regulated experimental room, to which mice have been habituated at least 30 min before each experiment.
Drug(s) is/are daily administered by gavage (per os). The β25-35 peptide and scrambled β 25-35 peptide (control) have been dissolved in sterile bidistilled water, and stored at −20° C. until use. The β-amyloid peptides are then administered intracerebroventricularly (i.c.v.). […]
On day 7 and 8, the contextual long-term memory of the animals is assessed using the […] passive avoidance procedure.
The apparatus is a two-compartment (15×20×15 cm high) box with one illuminated with white polyvinylchloride walls and the other darkened with black polyvinylchloride walls and a grid floor. […] The step-through latency, that is, the latency spent to enter the darkened compartment, and the number of vocalizations is recorded. […] After 5 s the doors is raised, the step-through latency and the escape latency, i.e. the time spent to return into the white compartment, are recorded up to 300 s.

Compound | effect on glutamate intoxication (in words) (neuronal cortical cells) | effect on Aβ1-42 intoxication, total length of neurites network (in words) (rat cortical neurons) | effect on step-through latency, drugs alone compared with the combination (in words) [1]
NCC(CC(=O)O)c1ccc(Cl)cc1 (stereo not drawn) [Baclofen] | no significant effect | no significant effect | lower effect
CC(=O)NCCCS(=O)(=O)O [Acamprosate] | no significant effect | no significant effect | lower effect
